Experimental findings from PubChem BioAssay (NCI) are described below.

The structures appear in SMILES notation. Where “and” joins values, the source holds several entries; their conditions need not be identical. Identical values can stand only once.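 Briefly, cells in 96-well plates were exposed to five compound concentrations for 48 h, and endpoints were estimated by linear interpolation. GI50 = concentration required for 50% inhibition of growth. The concentration for full growth arrest is given as TGI.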

Test systems include MDA-MB-435; RXF 393 renal; SR leukemia; OVCAR-8 ovarian; HCT-15 colon; OVCAR-3 ovarian; HS 578T breast; OVCAR-4 ovarian; SK-MEL-28 melanoma; SW-620 colon.
Holding throughout (experiment): NCI-60 cell line screen, 48 h

`O=C1OC(C(O)CO)C(C(O)CO)OC1=O` (stereo not drawn): the TGI with MDA-MB-435, in the assay on RXF 393 renal, in the assay with SR leukemia, with OVCAR-8 ovarian, in the assay on HCT-15 colon and with OVCAR-3 ovarian was more than 10 µM throughout. The TGI in the assay on HS 578T breast, in the assay with OVCAR-4 ovarian, in the assay with SK-MEL-28 melanoma and with SW-620 colon was more than 10 µM in each case.

`O=[N+]([O-])c1ccc(Sc2cccc[n+]2[O-])c2nonc12`: the GI50 was 6240 nM with MDA-MB-435; 2120 nM in the assay on RXF 393 renal; 0.703 µM in the assay with SR leukemia; 9930 nM in the assay on OVCAR-8 ovarian; 3030 nM in the assay with HCT-15 colon; 1070 nM in the assay with OVCAR-3 ovarian. The GI50 in the assay on HS 578T breast was 3660 nM; in the assay with OVCAR-4 ovarian it was 3.61 µM; in the assay with SK-MEL-28 melanoma, 2.47 µM; in the assay with SW-620 colon, 1650 nM. Moreover, the TGI in the assay with MDA-MB-435 was 20.1 µM; in the assay on RXF 393 renal, 6.32 µM; with SR leukemia, more than 100 µM; in the assay on OVCAR-8 ovarian, more than 67.6 µM; in the assay with HCT-15 colon, 14.7 µM; with OVCAR-3 ovarian, 2.48 µM. Besides, the TGI is 28.1 µM in the assay on HS 578T breast, 13.6 µM in the assay with OVCAR-4 ovarian, 6.31 µM with SK-MEL-28 melanoma and 3.41 µM with SW-620 colon.

Regarding `COc1ccc(C2=C(c3ccc(OC)cc3)C(=O)OC2)cc1`, the GI50 is 75.2 nM in the assay with MDA-MB-435; 1050 nM in the assay with RXF 393 renal; 0.238 µM in the assay on SR leukemia; 1350 nM with OVCAR-8 ovarian; 514 nM with HCT-15 colon; 216 nM in the assay on OVCAR-3 ovarian. For the same molecule, the GI50 in the assay with HS 578T breast was 604 nM; with OVCAR-4 ovarian, 16 µM; in the assay with SK-MEL-28 melanoma, 6.29 µM; in the assay on SW-620 colon, 361 nM. Further, the TGI in the assay on MDA-MB-435 was 0.4 µM; in the assay with SR leukemia it was 0.663 µM; with OVCAR-8 ovarian it was more than 52.3 µM; in the assay with HCT-15 colon, 8.27 µM; with OVCAR-3 ovarian, 0.712 µM; in the assay on HS 578T breast, 3.93 µM. Further, the results for the TGI with OVCAR-4 ovarian, with SK-MEL-28 melanoma and in the assay with SW-620 colon were more than 100 µM, more than 100 µM and more than 42.5 µM, respectively.

Take `C[C@H]1C[C@@H](n2c(Nc3ccc(OC(F)(F)F)cc3)nc3cc(CCC(=O)O)ccc32)CC(C)(C)C1`: the GI50 with MDA-MB-435 is 10400 nM; in the assay with RXF 393 renal it was 11300 nM; with SR leukemia, 6.23 µM; in the assay with OVCAR-8 ovarian, 13200 nM; in the assay on HCT-15 colon, 5690 nM; in the assay on OVCAR-3 ovarian it was 13000 nM. In addition, the GI50 in the assay with HS 578T breast was 10500 nM; in the assay with OVCAR-4 ovarian it was 11.2 µM; with SK-MEL-28 melanoma, 8.26 µM; with SW-620 colon, 15300 nM. Moreover, the TGI in the assay with MDA-MB-435 stood at 22.9 µM; in the assay with RXF 393 renal, 25.2 µM; in the assay on SR leukemia it was 36.6 µM; with OVCAR-8 ovarian it was 35.1 µM; in the assay with HCT-15 colon it was 18.9 µM; in the assay with OVCAR-3 ovarian, 25.8 µM. The TGI stood at 31.1 µM in the assay with HS 578T breast, 29.1 µM in the assay with OVCAR-4 ovarian, 22.5 µM with SK-MEL-28 melanoma and 32.5 µM in the assay with SW-620 colon.

As to `COc1ccc2nc3cc(Cl)ccc3c(Nc3ccccc3-c3ccccc3Nc3c4ccc(Cl)cc4nc4ccc(OC)cc34)c2c1`, the TGI in the assay on MDA-MB-435 is more than 100 µM; in the assay on RXF 393 renal, more than 53.5 µM; in the assay on SR leukemia, more than 66.8 µM; in the assay with OVCAR-8 ovarian, more than 100 µM; in the assay with HCT-15 colon, more than 66.9 µM; in the assay on OVCAR-3 ovarian it was more than 78.4 µM. Moreover, the TGI in the assay on HS 578T breast is more than 100 µM; in the assay on OVCAR-4 ovarian, 81.6 µM; with SK-MEL-28 melanoma, more than 86.6 µM; with SW-620 colon, more than 68.2 µM.

For the molecule `COc1ccc(-c2nc(NC(=O)CS(=O)(=O)c3ccc(F)cc3)sc2C)cc1`, the GI50 in the assay on MDA-MB-435 is 3290 nM; in the assay with RXF 393 renal, 15600 nM; in the assay with SR leukemia, 4.32 µM; with OVCAR-8 ovarian, 24100 nM; in the assay on HCT-15 colon, 12500 nM; in the assay on OVCAR-3 ovarian it was 15700 nM. Besides, the GI50 was 14800 nM in the assay with HS 578T breast, 31 µM in the assay on OVCAR-4 ovarian, 20.1 µM in the assay on SK-MEL-28 melanoma and 13700 nM in the assay with SW-620 colon. Besides, the TGI in the assay on MDA-MB-435 is 12.1 µM; in the assay with RXF 393 renal, 49.7 µM; in the assay on SR leukemia, 46.1 µM; in the assay on OVCAR-8 ovarian it was 89.3 µM; in the assay on HCT-15 colon, more than 100 µM; with OVCAR-3 ovarian, 39.9 µM. For the same molecule, the TGI is 63.3 µM in the assay with HS 578T breast, more than 100 µM with OVCAR-4 ovarian, 62 µM in the assay with SK-MEL-28 melanoma and more than 100 µM with SW-620 colon.

On to `CN1CCN(C2=C(Cl)C(=O)c3ccccc3C2=O)CC1`, for which the GI50 in the assay on MDA-MB-435 was 1950 nM; with RXF 393 renal it was 1590 nM; in the assay on SR leukemia it was 3.42 µM; with OVCAR-8 ovarian it was 1740 nM; in the assay on HCT-15 colon, 1770 nM; with OVCAR-3 ovarian, 1390 nM. For the same molecule, the GI50 is 1840 nM with HS 578T breast, 1.59 µM with OVCAR-4 ovarian, 1.75 µM in the assay on SK-MEL-28 melanoma and 1670 nM in the assay on SW-620 colon. Moreover, the TGI in the assay with MDA-MB-435 is 3.6 µM; with RXF 393 renal it was 2.95 µM; with SR leukemia, more than 27.3 µM; with OVCAR-8 ovarian, 3.59 µM; with HCT-15 colon it was 3.41 µM; in the assay on OVCAR-3 ovarian, 2.69 µM. In addition, the TGI was determined as 4.84 µM in the assay with HS 578T breast, 2.95 µM with OVCAR-4 ovarian, 3.18 µM in the assay with SK-MEL-28 melanoma and 3.23 µM in the assay on SW-620 colon.

Consider `NC(CSC(c1ccccc1)(c1ccccc1)c1ccccc1)C(=O)O` (stereo not drawn), for which the GI50 in the assay on MDA-MB-435 is 275 nM; in the assay with RXF 393 renal, 708 nM and 454 nM; in the assay with OVCAR-8 ovarian, 1930 nM and 1050 nM; with HCT-15 colon, 2310 nM and 1790 nM; in the assay on OVCAR-3 ovarian, 2460 nM and 2180 nM; with HS 578T breast it was 723 nM. In addition, the GI50 in the assay with OVCAR-4 ovarian is 11.6 µM and 11.2 µM; with SK-MEL-28 melanoma it was 12.2 µM and 4.46 µM; in the assay with SW-620 colon it was 1640 nM and 968 nM. Moreover, the TGI in the assay on MDA-MB-435 was 0.648 µM and 0.791 µM; in the assay with RXF 393 renal, 22.8 µM and > 100 µM; in the assay on SR leukemia, 19.3 µM and 43.8 µM; in the assay with OVCAR-8 ovarian it was 51.5 µM and 35.7 µM and > 100 µM; in the assay with HCT-15 colon, 51.1 µM and > 100 µM; in the assay on OVCAR-3 ovarian, 9.48 µM and 27.9 µM and 13 µM. The TGI was 21 µM and 32.4 µM in the assay on HS 578T breast; 61 µM and > 100 µM in the assay with OVCAR-4 ovarian; 110 µM and > 100 µM with SK-MEL-28 melanoma; 107 µM and > 100 µM with SW-620 colon.

As for `NCC(=O)Nc1ccc(Cl)cc1C(=O)c1ccc[nH]1`, the TGI in the assay with MDA-MB-435, in the assay with RXF 393 renal, with SR leukemia, in the assay with OVCAR-8 ovarian, with HCT-15 colon and in the assay with OVCAR-3 ovarian was more than 100 µM each time. The TGI is more than 100 µM with HS 578T breast, more than 94.9 µM in the assay with OVCAR-4 ovarian, more than 100 µM with SK-MEL-28 melanoma and more than 100 µM in the assay on SW-620 colon.
